Laboratory results from patent publication US20110123466A1, “PHARMACEUTICAL AND/OR COSMETIC COMPOSITION CONTAINING AN ACTIVE PRINCIPLE ACTIVATOR OF CYTOCHROME C” (SOCIETE D'EXTRACTION DES PRINCIPES ACTIFS S.A (ISP …, priority 2007, published 2011).
Ends that are not written are not given here.

Tests used:
Dermal fibroblasts = test: Synthesis of intracellular ATP (ATP Bioluminescence Assay Kit HS II); assay type: cell-based; conditions: 1% solution of a 50 ppm peptide solution, compared to untreated cells
Method: Protocol: This study was conducted using an ATP Bioluminescence Assay Kit HS II (Roche Applied Science). Dermal fibroblasts were treated with a 1% solution of a 50 ppm solution containing the SEQ ID No. 2 peptide, representative of the peptide family according to the invention, for a period of 1 to 3 hours. At the end of incubation, the tubes were rinsed with 2 ml of cold PBS before adding 250 μl of a lysis buffer provided in the kit. The cells of each tubes were then scraped up and collected in 14-ml tubes. Each tube was rinsed with 2×500 μl of cold PBS and the whole was collected again in the respective tubes. […] The ATP measurement was performed on these samples: 50 μl of this dilution was placed in a Luma cuvette and […]. After 10 seconds, the luminescence reading was begun. The values were standardized relative to the quantity of proteins for each sample. The measurements were made using the Biocounter M2010A Luma®/3M equipment.

cytochrome C = test: Expression of cytochrome C by immunotransfer (Western Blot); assay type: cell-based; conditions: human dermal fibroblasts; 1% solution of a 50-ppm mother-solution; 72 hours
Method: The aim of this study was to determine the effect of the SEQ ID No. 2 peptide on the expression of cytochrome C. For this, the quantity of cytochrome C was evaluated by the immunotransfer (or Western Blot) technique.
Protocol: Human dermal fibroblasts were treated with a 1% solution of a 50-ppm SEQ ID No. 2 peptide mother-solution for 72 hours. The cells were then lysed and homogenized by sonication, then centrifuged for 10 minutes at 1000 g. The samples, standardized for their protein concentration (BCA measurement kit, Pierce) were subjected to electrophoresis on 4-12% bis-tris gel (Invitrogen). After electro-transfer, the membranes were incubated overnight with an anticytochrome C antibody, diluted to 1/500 (mouse monoclonal anti-cytochrome C, Tebu). A secondary antibody, coupled to the peroxidase and diluted to 1/5000 was then used (peroxidase conjugated F(ab′)2, goat antimouse, Immunotech). The chemiluminescent signal was then quantified using the Supersignal West Femto Trial kit and read in a reading chamber (MultiImage Light Cabinet, Immunotech Corporation).

cytochrome oxidase = test: Enzymatic activity of cytochrome oxidase (Cytocox 1 kit) in treated fibroblasts; assay type: cell-based; conditions: normal human fibroblasts, 1% solution of a 50-ppm solution, compared with untreated cells
Method: The aim of this study was to determine the effect of the SEQ ID No. 2 peptide on mitochondrial activity. For this, the total enzymatic (mitochondrial) activity of cytochrome oxidase was measured.
Protocol: Normal human fibroblasts were treated with a 1% solution of a 50-ppm solution containing the SEQ ID No. 2 peptide, representative of the peptide family according to the invention, for 3 hours and 24 hours. The cells were collected, rinsed, and then lysed by sonication. A first centrifuging was performed to eliminate the principal cellular debris, and the supernatant was then centrifuged again at 10,000 g for 10 minutes. The enzymatic activity was measured in the supernatant and/or in the second residue, by a biochemical method using the Cytocox 1 kit (Sigma-Aldrich), then standardized for protein content (measured with the BCA kit, Pierce).

[1] = tested on: dermal fibroblast mitochondria; test: Mitochondrial membrane potential, JC-1 marking, with or without H2O2 or UVB stress; assay type: cell-based, human
Method: The aim of this study was to determine the protective effect of the SEQ ID No. 2 peptide with respect to dermal fibroblast mitochondria subjected to an oxidative stress caused by oxygenated water (H2O2) or UVB irradiation. A marker for the membrane potential of mitochondria (JC-1) was used for this. JC-1 is a marker that emits different fluorescences depending on the level of polarization of the mitochondrial membrane.
Protocol: Human dermal fibroblasts were treated with a 1% solution of a 50-ppm SEQ ID No. 2 peptide mother-solution for 96 hours and then subjected to an oxidative stress caused by 2 mM of H2O2 for 30 min. or to UVB irradiation at 50 mJ/cm^2. Controls not treated with the peptide or H2O2 or not irradiated were performed under the same conditions. At the end of the experiment, the cells were washed, fixed, and subjected to marking with a 0.2 μg/ml solution of JC-1 (Molecular Probes®) in order to disclose the membrane potential of the mitochondria.

In the case of “Tyr-Leu-Lys-Lys-Ala-NH2 (YLKKA-NH2) [SEQ ID No. 2]”, the “increase in the amount of intracellular ATP” value (Dermal fibroblasts; after 3 hours) is reported as 27%, the “increase in the amount of intracellular ATP” value (Dermal fibroblasts; after one hour) is reported as 41% and the “expression of cytochrome C” value (cytochrome C) is reported as “clear increase”. For the same substance, the “increase in enzymatic activity of cytochrome oxidase” value (cytochrome oxidase; 24 hours after application) was 750%, the “increase in enzymatic activity of cytochrome oxidase” value (cytochrome oxidase; after 3 hours) was 150% and the “mitochondrial membrane potential (JC-1 red fluorescence) under stress” value ([1]; peptide for 96 hours, then 2 mM H2O2 for 30 min or UVB 50 mJ/cm^2) was “more marked red fluorescence”. The “mitochondrial membrane potential (JC-1 red fluorescence)” value ([1]; unstressed human dermal fibroblasts, 1% solution of a 50-ppm mother-solution, 96 hours) was “elevated membrane potential, greater than in the control cells”.
